Measurements taken from ChEMBL document CHEMBL1201862, “PubChem BioAssay data set” (2004).
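Values below derive from 48-hour exposures of cells grown in 96-well plates, with endpoints linearly interpolated between the two concentrations bracketing the appropriate inhibition level. Here, GI50 denotes the concentration required for 50% inhibition of growth.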 The source made the active and inactive calls. Cut-off read from the data, not from the text of the source: active = GI50 up to about 1.1 µM and inactive = higher.

Columns and labels:
Test in all cases: DTP human tumour cell line panel, 48 h
786-0 = system: 786-0
A498 = system: A498
ACHN = system: ACHN
CCRF-CEM = system: CCRF-CEM
COLO 205 = system: COLO 205
DU-145 = system: DU-145
HCC 2998 = system: HCC 2998
IGROV-1 = system: IGROV-1
K562 = system: K562
MDA-MB-231 = system: MDA-MB-231
MDA-MB-435 = system: MDA-MB-435
OVCAR-4 = system: OVCAR-4
OVCAR-5 = system: OVCAR-5
SN12C = system: SN12C
SNB-75 = system: SNB-75
T47D = system: T47D
U-251 = system: U-251
UACC-257 = system: UACC-257
UO-31 = system: UO-31

SMILES	GI50 (786-0)	GI50 (A498)	GI50 (ACHN)	GI50 (CCRF-CEM)	GI50 (COLO 205)	GI50 (DU-145)	GI50 (HCC 2998)	GI50 (IGROV-1)	GI50 (K562)	GI50 (MDA-MB-231)	GI50 (MDA-MB-435)	GI50 (OVCAR-4)	GI50 (OVCAR-5)	GI50 (SN12C)	GI50 (SNB-75)	GI50 (T47D)	GI50 (U-251)	GI50 (UACC-257)	GI50 (UO-31)
COC(=O)CCCC(=O)NC1=C(Nc2ccccc2)C(=O)c2ccccc2C1=O	17.9 µM (inactive)	16.9 µM (inactive)	19.3 µM (inactive)	22.8 µM (inactive)	16.3 µM (inactive)	15.2 µM (inactive)	14.7 µM (inactive)	16 µM (inactive)	19.2 µM (inactive)	19.1 µM (inactive)	5.51 µM (inactive)	19.3 µM (inactive)	16.8 µM (inactive)	18 µM (inactive)	18.4 µM (inactive)	24.3 µM (inactive)	14.4 µM (inactive)	13.3 µM (inactive)	21.2 µM (inactive)
COC(=O)C1C(=O)C(C(=O)OC)C2CCC1N2C (configuration not stated)	33.7 µM (inactive)	76.9 µM (inactive)	41 µM (inactive)	15.8 µM (inactive)	> 100 µM (inactive)	28.8 µM (inactive)	> 100 µM (inactive)	22.9 µM (inactive)	31.8 µM (inactive)	39 µM (inactive)	24.8 µM (inactive)	39.8 µM (inactive)	> 100 µM (inactive)	32.1 µM (inactive)	35.2 µM (inactive)	30.7 µM (inactive)	56.1 µM (inactive)	83.4 µM (inactive)	59.8 µM (inactive)
O=c1[nH]c(=S)[nH]cc1CN1CCOCC1	> 100 µM (inactive)	> 100 µM (inactive)	> 100 µM (inactive)	> 100 µM (inactive)	> 100 µM (inactive)	> 100 µM (inactive)	> 100 µM (inactive)	> 100 µM (inactive)	> 100 µM (inactive)	> 100 µM (inactive)	> 100 µM (inactive)	> 100 µM (inactive)	> 100 µM (inactive)	> 100 µM (inactive)	> 100 µM (inactive)	> 100 µM (inactive)	> 100 µM (inactive)	> 100 µM (inactive)	> 100 µM (inactive)
O=C(OCCNC(=O)N1CC1)OCCNC(=O)N1CC1	> 10 µM (inactive)	> 10 µM (inactive)	> 10 µM (inactive)	> 10 µM (inactive)	> 10 µM (inactive)	> 10 µM (inactive)	> 10 µM (inactive)	> 10 µM (inactive)	> 10 µM (inactive)	> 10 µM (inactive)	> 10 µM (inactive)	> 10 µM (inactive)	> 10 µM (inactive)	> 10 µM (inactive)	> 10 µM (inactive)	> 10 µM (inactive)	> 10 µM (inactive)	> 10 µM (inactive)	> 10 µM (inactive)
COc1cc(Cc2cnc(N)nc2N)cc(OC)c1OCCCNc1ccc([N+](=O)[O-])cc1	12.4 µM (inactive)	14.9 µM (inactive)	18 µM (inactive)	9.35 µM (inactive)	12.2 µM (inactive)	15.8 µM (inactive)	14.5 µM (inactive)	12.5 µM (inactive)	8.69 µM (inactive)	12.9 µM (inactive)	13.8 µM (inactive)	15.8 µM (inactive)	19 µM (inactive)	16.3 µM (inactive)	16.2 µM (inactive)	8.07 µM (inactive)	13.7 µM (inactive)	11.9 µM (inactive)	12.4 µM (inactive)
NCCCN(CCCCN(CCCN)CCCc1ccccc1)CCCc1ccccc1	1.7 µM (inactive)	13.1 µM (inactive)	2.68 µM (inactive)	2.49 µM (inactive)	1.56 µM (inactive)	8.11 µM (inactive)	1.62 µM (inactive)	2.65 µM (inactive)	1.77 µM (inactive)	2.02 µM (inactive)	1.74 µM (inactive)	4.89 µM (inactive)	11 µM (inactive)	3.9 µM (inactive)	1.93 µM (inactive)	6.84 µM (inactive)	1.98 µM (inactive)	1.79 µM (inactive)	2.19 µM (inactive)
NC(Cc1ccc(S(=O)(=O)O)cc1)C(=O)NC(Cc1ccc(S(=O)(=O)O)cc1)C(=O)O (configuration not stated)	> 100 µM (inactive)	> 100 µM (inactive)	> 100 µM (inactive)	> 100 µM (inactive)	> 100 µM (inactive)	> 100 µM (inactive)	> 100 µM (inactive)	> 100 µM (inactive)	0.0475 µM (active)	> 100 µM (inactive)	> 100 µM (inactive)	> 100 µM (inactive)	> 100 µM (inactive)	> 100 µM (inactive)	> 100 µM (inactive)	> 100 µM (inactive)	> 100 µM (inactive)	> 100 µM (inactive)	> 100 µM (inactive)
Cc1cc(S(=O)(=O)Nc2nc(N)n(-c3ccccn3)n2)c(S)cc1Cl	> 100 µM (inactive)	> 100 µM (inactive)	> 100 µM (inactive)	> 100 µM (inactive)	> 100 µM (inactive)	> 100 µM (inactive)	> 100 µM (inactive)	> 100 µM (inactive)	> 100 µM (inactive)	> 100 µM (inactive)	> 100 µM (inactive)	> 100 µM (inactive)	> 100 µM (inactive)	> 100 µM (inactive)	> 100 µM (inactive)	> 100 µM (inactive)	> 100 µM (inactive)	> 100 µM (inactive)	> 100 µM (inactive)
